Measured values: patent US20250073209A1, “COVALENT TARGETING OF RhoA FOR CANCER THERAPY” (The University of Hong Kong, priority 2023, published 2025)

Columns and labels:
HT29 cells = test: Transwell (Matrigel) invasion assay; type: cell-based, human; conditions: HT29, 24 h
HCT116 xenograft = test: Mouse HCT116 xenograft model; type: in vivo; conditions: nude mice, 10 mg/kg intraperitoneal
Method: FIG. 7A is a graph showing inhibition of tumor growth by CL16 in mouse HCT116 xenografts through intraperitoneal injection at 10 mg/kg (n=6 per group). FIG. 7B is a graph showing inhibition of tumor growth by CL16 in mouse HT29 xenografts through intraperitoneal injection at 10 mg/kg (n=7). FIG. 7C is a graph showing the body weight of mice with HT29 xenografts throughout the treatment with CL16. FIG. 7D is a graph showing inhibition of tumor growth by CL16 in mouse SW620 xenografts through intraperitoneal injection at 10 mg/kg (n=6 per group). FIG. 7E is a bar graph showing the tumor weight of harvested tumors from the treated mice with SW620 xenografts. FIG. 7F is a graph showing the body weight of mice with SW620 xenografts throughout the treatment with CL16. Statistical analysis using a two-tailed Student's t-test. *P<0.05.
7-week-old mice with weight around 20 g were inoculated subcutaneously with HCT116 (2×10^6 cells per mouse) or HT29 (3×10^6 cells per mouse) cells, in serum-free RMPI or Matrigel in PBS respectively. […] The tumor volume and body weight of the nude mice were measured throughout the treatment. The tumor volume was calculated by the equation: Volume (mm^3)=1×w^2/2, where 1 and w were the length and width of the tumor. At the end of the treatment, the mice were sacrificed and the tumor weight was measured. […]

CRC xenografts = test: H&E and immunohistochemistry on tissues of nude mice with CRC xenografts; type: in vivo, mouse
Text: FIGS. 14A and 14B are graphs showing immunohistochemistry staining scores for the images of H&E and immunohistochemistry staining of Ki67 (FIG. 14A) and cleaved caspase-3 staining (FIG. 14B) of tumor tissues from the vehicle- or CL16-treated mice. FIGS. 14C and 14D are graphs showing immunohistochemistry staining scores for the images of H&E, Ki67 (FIG. 14C) and cleaved caspase-3 (FIG. 14D) staining of tumor tissues from the vehicle- or CL16-treated mice with HT29 xenografts.
After confirming the anticancer properties of CL16 on CRC cells and RhoA Cys16 as its primary molecular target, the anticancer effect of CL16 in vivo was studied.

RhoA [1] = target: T1, RhoA (Homo sapiens, UniProt P61586); test: Gel-based competitive ABPP (iodoacetamide-rhodamine) on purified RhoA; design: purchased ab101594; conditions: competition with IA-Rh, dose-dependent experiments; read-out: IC50 of the competitive binding / in vitro RhoA binding
Method: Recombinant human RhoA (0.1 μg; ab101594) was pretreated with cysteine-reactive compounds or DMSO for 1 hour at room temperature, followed by incubation with iodoacetamide-rhodamine (IA-Rh; 1 μM) for 1 hour at room temperature. The reaction was then quenched by boiling in sampling buffer. Samples were subjected to SDS-PAGE to separate proteins bands. In-gel fluorescence intensity was measured with a Chemidoc using setting for Rhodamine. Gel was subsequently stained with silver stain (Pierce) for visualization of protein content and covalent modification. Band intensity was quantified using ImageJ.
CL16 was identified for its strong and specific binding with RhoA in covalent ligand screening experiment by ABPP. ABPP is known as a powerful platform for covalent ligand screening, particularly for the identification of lead compounds targeting new hotspots for therapy. Competitive gel-based activity-based protein profiling (ABPP) experiment was performed on purified RhoA protein for screening its interactions with a library of cysteine-reactive covalent ligands with acrylamide or chloroacetamide warheads. RhoA protein for the first screening and on Rac1 and Cdc42 for the second screening to identify lead compounds with specific binding onto RhoA Cys16. […] The reaction mixture was then resolved by SDS-PAGE and in-gel fluorescence was imaged (FIG. 1A). […]

RhoA [2] = target: T1, RhoA; test: RhoA-GTP rhotekin pull-down in HT29 cells, complete medium; type: cell-based; design: endogenous in cells; host or cells: HCT116, HT29; conditions: HT29, complete medium 24 h
Method: RhoA Pull-Down Activation Assay Biochem Kit (#BK036) was purchased from Cytoskeleton. According to the manufacturer's protocol, total cell lysate (0.5 mg/mL; 300 μL) was added to 7.5 μL of Rhotekin-Rho Binding Domain beads in 0.6 mL tubes. The solution mixture was incubated at 4° C. on an end-to-end rotator for 1 hour. Beads were washed with 500 μL of washing buffer once, then centrifuged at 5000g for 3 min and the supernatant was discarded. RhoA-GTP was then eluted in 2× laemmli buffer and resolved in 10% SDS-PAGE.
GTP loading onto RhoA is critical for the protein activation and mediating downstream signals. In view of the inhibitions of GDP-to-GTP exchange of RhoA by CL16 in vitro as discussed above, effects of CL16 on RhoA biology in colorectal cancer cells were examined. In the serum starvation-re-stimulation experiment, HCT116 cells were grown in serum-free medium with CL16, Rhosin or solvent control for 24 h, followed by stimulation with 10% FBS for 10 min. The cells were then lysed and the RhoA activity was assayed by the level of RhoA-GTP, which is the active form of RhoA. […] HT29 cells were incubated with solvent vehicle, CL16 or Rhosin in complete medium for 24 h. […] Confocal fluorescence images from HCT116 and HT29 cells expressing FRET RhoA-biosensor in the serum starvation-restimulation experiment were taken.

T1 sequence (P61586 whole entry): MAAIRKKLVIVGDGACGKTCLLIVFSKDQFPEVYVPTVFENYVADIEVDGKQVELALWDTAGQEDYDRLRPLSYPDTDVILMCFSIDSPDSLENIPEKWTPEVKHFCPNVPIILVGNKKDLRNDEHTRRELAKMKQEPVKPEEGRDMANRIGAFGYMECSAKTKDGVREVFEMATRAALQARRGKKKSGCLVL

IC50 (RhoA [1]): 440 nM
RhoA activity (RhoA-GTP) (RhoA [2]): specific inhibition of RhoA activity
Compound: O=C(CCl)N1N=C(c2cc3ccccc3o2)CC1c1ccco1 (stereo not shown) [CL16]
cell invasion (HT29 cells): good efficacy in reducing HT29 cell migration and invasion
tumor growth vs vehicle control (HCT116 xenograft): significantly inhibited tumor growth
H&E staining of major organs (CRC xenografts; CL16-treated mice): no observable damages on major organs
Ki67 immunohistochemistry on tumor tissues (CRC xenografts; CL16-treated vs solvent): reduction in Ki67
cleaved caspase-3 level in tumor tissues (CRC xenografts; CL16-treated vs vehicle): elevated cleaved caspase-3 level
